Where two headings read alike, the source gives them in different places.
Test: Placebo controlled, dose escalation pharmacokinetic study of oral (Z)-Endoxifen capsules (serum endoxifen; incl. accumulation ratios and dose linearity)
Type: in vivo, human
Set-up: Serum concentration, Maximum / Serum concentration, GeoMean / Serum concentration, Mean / Serum concentration, Median / terminal rate constant: unit not given here
Settings: for Serum concentration, GeoMean / Serum concentration, Maximum / Serum concentration, Mean / Serum concentration, Median / Serum concentration, Minimum: 2 mg (n = 6)
Description: An objective of the study was to assess the safety and tolerability of oral (Z)-Endoxifen when administered […] orally as a capsule to healthy female volunteers. A secondary objective was to assess the pharmacokinetics of multiple doses of oral (Z)-Endoxifen in the subjects.
Generally, healthy female volunteers aged ≥18 years and ≤65 years were enrolled. 24 participants were enrolled in 3 cohorts and will be administered study drug orally. Three dose levels of orally administered (Z)-Endoxifen were investigated in 3 cohorts. In each cohort participants were randomized to receive an oral (Z)-Endoxifen or placebo in a blinded fashion. Enteric-resistant capsules used in the study were designed as delayed release capsules to resist rupture for at least 30 minutes, but typically, for about 2 hours, under gastric conditions and then open fully in intestinal fluid (DRCaps; Capsugel, a Lonza Company, USA). Enteric-resistant (Swedish Orange size Zero (0); Capsugel, USA) DRCaps capsules manually filled with 1, 2 or 4 mg of (Z)-endoxifen neat in compliance with GMP requirements were used. Placebo capsules contained microcrystalline cellulose an inert common capsule and tablet excipient.
Each cohort enrolled 8 participants, with 6 participants receiving (Z)-Endoxifen 1 mg capsules orally at 1 mg (Cohort 1), 2 mg (Cohort 2) or 4 mg (Cohort 3) doses and 2 participants receiving matching placebo capsules. In Cohort 1 (Dose Level=1 mg) two participants (sentinels) were dosed 24 hours prior to the remaining participants. One sentinel was dosed with (Z)-Endoxifen and the other with placebo. The remaining six participants in Cohort 1 were dosed as no safety concerns were identified in the sentinel participants. The non-sentinel participants in Cohort 1 were admitted to the clinical research facility at least one day later than the sentinels. There were no sentinels in Cohorts 2 and 3.
Participant engagement in this study was for a period of 56 days. These included a 28 day screening period, and a 7 day post treatment period for Pharmacokinetic (PK) sampling. There were two confinement periods, one at the beginning and one at the end of the dosing periods. Participants were confined to the clinical facility on Days-1 through to Day 2 and Days 21 and 22. If participants were to experience any clinically significant adverse events during the study, they would have been required to remain in the clinical facility for further observation at the discretion of the Principal Investigator (PI).
Healthy female volunteers were screened within 28 days prior to commencement of dosing. Participants were admitted to the clinical facility on Day-1 for up to 3 days. The first dose of (Z)-Endoxifen or placebo capsules was administered on Day 1. Following completion of all safety assessments and sampling for PK analyses, participants were discharged from the clinical facility on Day 2. The first dose on Day 1 was followed by a 6-day treatment free period (Days 2-7). Each participant returned to the clinical facility for PK blood draws and safety assessments during the treatment free period on study Days 4 and 6. On Day 8 participants commenced daily administration of (Z)-Endoxifen capsules or placebo capsules for 14 consecutive days (Days 8-21). Participants were supplied with study drug capsules and asked to self administer daily. Participants visited the clinical facility on Days 11, 14 and 17, prior to dose administration, for PK blood draws and safety assessments. On the morning of Day 21 each participant returned to the clinical facility prior to dose administration and were confined to the facility until Day 22 to allow for the collection of PK blood draws and safety assessments. The Day 21 dose was the last administration of study drug. Participants were discharged from the clinical facility on Day 22 and returned for PK blood draws and safety assessments on study Days 24, 26, and 28. […]

## CC/C(=C(\c1ccc(O)cc1)c1ccc(OCCNC)cc1)c1ccccc1 [(Z)-Endoxifen, (Z)-4-(1-(4-(2-(methylamino)ethoxy)phenyl)-2-phenylbut-1-enyl) phenol]
1 mg, Day 1 Pre-dose, read-out: Serum concentration, GeoMean
  concentration at 10 h: 2.68 nM
1 mg, Day 1 Pre-dose, read-out: Serum concentration, Max
  concentration at 10 h: 2.68 nM
1 mg, Day 1 Pre-dose, read-out: Serum concentration, Mean
  concentration at 10 h: 2.68 nM
1 mg, Day 1 Pre-dose, read-out: Serum concentration, Median
  concentration at 10 h: 2.68 nM
1 mg, Day 1 Pre-dose, read-out: Serum concentration, Min
  concentration at 10 h: 2.68 nM
1 mg, Day 8 Pre-dose, read-out: Serum concentration, GeoMean
  concentration at 10 h: 2.68 nM
1 mg, Day 8 Pre-dose, read-out: Serum concentration, Max
  concentration at 10 h: 2.68 nM
1 mg, Day 8 Pre-dose, read-out: Serum concentration, Mean
  concentration at 10 h: 2.68 nM
1 mg, Day 8 Pre-dose, read-out: Serum concentration, Median
  concentration at 10 h: 2.68 nM
1 mg, Day 8 Pre-dose, read-out: Serum concentration, Min
  concentration at 10 h: 2.68 nM
1 mg, Day 11 Pre-Dose, read-out: Serum concentration, GeoMean
  concentration at 10 h: 37.7 nM
1 mg, Day 11 Pre-Dose, read-out: Serum concentration, Max
  concentration at 10 h: 45.5 nM
1 mg, Day 11 Pre-Dose, read-out: Serum concentration, Mean
  concentration at 10 h: 38.5 nM
1 mg, Day 11 Pre-Dose, read-out: Serum concentration, Median
  concentration at 10 h: 42.8 nM
1 mg, Day 11 Pre-Dose, read-out: Serum concentration, Min
  concentration at 10 h: 26.8 nM
1 mg, Day 14 Pre-dose, read-out: Serum concentration, GeoMean
  concentration at 10 h: 37.6 nM
1 mg, Day 14 Pre-dose, read-out: Serum concentration, Max
  concentration at 10 h: 75.0 nM
1 mg, Day 14 Pre-dose, read-out: Serum concentration, Mean
  concentration at 10 h: 43.4 nM
1 mg, Day 14 Pre-dose, read-out: Serum concentration, Median
  concentration at 10 h: 40.2 nM
1 mg, Day 14 Pre-dose, read-out: Serum concentration, Min
  concentration at 10 h: 13.4 nM
1 mg, Day 17 Pre-Dose, read-out: Serum concentration, GeoMean
  concentration at 10 h: 38.5 nM
1 mg, Day 17 Pre-Dose, read-out: Serum concentration, Max
  concentration at 10 h: 64.2 nM
1 mg, Day 17 Pre-Dose, read-out: Serum concentration, Mean
  concentration at 10 h: 43.4 nM
1 mg, Day 17 Pre-Dose, read-out: Serum concentration, Median
  concentration at 10 h: 45.5 nM
1 mg, Day 17 Pre-Dose, read-out: Serum concentration, Min
  concentration at 10 h: 13.4 nM
Day 1 Pre-dose
  Serum concentration, GeoMean: 1.00
  Serum concentration, Maximum: 1.00
  Serum concentration, Mean: 0.17
  Serum concentration, Median: 0.00
  Serum concentration, Minimum: 0.00
Day 4 Hr 72
  Serum concentration, GeoMean: 5.47
  Serum concentration, Maximum: 8.00
  Serum concentration, Mean: 5.67
  Serum concentration, Median: 5.50
Day 6 Hr 120
  Serum concentration, GeoMean: 2.55
  Serum concentration, Maximum: 4.00
  Serum concentration, Mean: 2.80
  Serum concentration, Median: 3.00
Day 8 Pre-dose
  Serum concentration, GeoMean: 1.00
  Serum concentration, Maximum: 1.00
  Serum concentration, Mean: 0.83
  Serum concentration, Median: 1.00
Day 11 Pre-Dose
  Serum concentration, GeoMean: 22.6
  Serum concentration, Maximum: 28.0
  Serum concentration, Mean: 22.8
  Serum concentration, Median: 22.5
Day 14 Pre-dose
  Serum concentration, GeoMean: 28.9
  Serum concentration, Maximum: 37.0
  Serum concentration, Mean: 29.2
  Serum concentration, Median: 28.5
Day 17 Pre-Dose
  Serum concentration, GeoMean: 31.5
  Serum concentration, Maximum: 47.0
  Serum concentration, Mean: 32.2
  Serum concentration, Median: 29.5
Day 1 hr 0.5
  Serum concentration, Maximum: 0.00
  Serum concentration, Mean: 0.00
  Serum concentration, Median: 0.00
Day 1 hr 1
  Serum concentration, GeoMean: 2.35
  Serum concentration, Maximum: 4.00
  Serum concentration, Mean: 2.17
  Serum concentration, Median: 2.50
Day 1 hr 2
  Serum concentration, GeoMean: 9.55
  Serum concentration, Maximum: 16.0
  Serum concentration, Mean: 10.2
  Serum concentration, Median: 10.0
Day 1 hr 3
  Serum concentration, GeoMean: 14.3
  Serum concentration, Maximum: 17.0
  Serum concentration, Mean: 14.5
  Serum concentration, Median: 14.5
Day 1 hr 4
  Serum concentration, GeoMean: 16.6
  Serum concentration, Maximum: 22.0
  Serum concentration, Mean: 17.2
  Serum concentration, Median: 17.5
Day 1 hr 5
  Serum concentration, GeoMean: 16.8
  Serum concentration, Maximum: 22.0
  Serum concentration, Mean: 17.2
  Serum concentration, Median: 17.0
Day 1 hr 8
  Serum concentration, GeoMean: 13.8
  Serum concentration, Maximum: 19.0
  Serum concentration, Mean: 14.3
  Serum concentration, Median: 14.5
Day 1 hr 10
  Serum concentration, GeoMean: 14.2
  Serum concentration, Maximum: 19.0
  Serum concentration, Mean: 14.5
  Serum concentration, Median: 14.5
Day 1 hr 12
  Serum concentration, GeoMean: 14.1
  Serum concentration, Maximum: 18.0
  Serum concentration, Mean: 14.2
  Serum concentration, Median: 14.0
  Serum concentration, Minimum: 12.0
Day 1 hr 24
  Serum concentration, GeoMean: 10.1
  Serum concentration, Maximum: 13.0
  Serum concentration, Mean: 10.3
  Serum concentration, Median: 10.5
Day 1, 1 mg, N = 5
  AUC0-inf, Max: 739 ng·h/mL
  AUC0-inf, Min: 441 ng·h/mL
  AUC24hr, Max: 183 ng·h/mL
  AUC24hr, Min: 102 ng·h/mL
  AUCTlast, Max: 582 ng·h/mL
  AUCTlast, Min: 367 ng·h/mL
  CL/F, GeoMean: 1.79 L/h
  CL/F, Max: 2.27 L/h
  CL/F, Mean: 1.82 L/h
  CL/F, Median: 1.87 L/h

Reference: patent US12275684B2, “Methods for making and using endoxifen” (Atossa Therapeutics, Inc., priority 2017, dated 2025)
